Key:
Type in all cases: cell-based
[1] = tested on: STTG grade 4 astrocytoma cell line; experiment: Proliferation of STTG cancer cells, Promega cell titer assay; conditions: 20 μM, 96 hours, negative number = increase
Procedure: (§1) Assays were performed to determine the effect of Cpd. 5 (synthesis described in Example 1) on proliferation of two cancer cell lines. These two cell lines were STTG grade 4 astrocytoma cell line and AU565 breast cancer cell line. Both cell lines were obtained from American Type Culture Collection, Rockville, Md. (ATCC).
(§2) To perform the assays, a 50 mM stock solution of Cpd. 5 was prepared in DMSO and frozen at −80° C. Aliquots of the stock solution were removed and 100 μM dilutions were made in Iscove's modified Dulbecco's medium (IMDM; obtained from ATCC) supplemented with 10% fetal bovine serum (FBS) and penicillin/streptomycin solution. Controls containing equivalent amounts of DMSO to the 100 μM solution were mixed for comparative purposes. 100 μl of the resulting solutions were then added to 96 well culture plates in triplicate and placed in a 37° C. incubator with 5% CO2 to warm.
(§3) At this point, cells were removed from passage flasks using trypsin and counted using trypan blue to establish cell counts/ml and viability. For all experiments, viability of cells was greater than 95%. Solutions of 4,000 cells/100 μl were prepared in the medium from above and 100 μl of the solutions were added to each well of the plates. The plates were placed back in the incubator and incubated with the compounds for 96 hours.
(§4) Following incubation, cell proliferation was assayed by adding 20 μl Promega cell titer aqueous one reagent to each well. […] The plates were incubated at 37° C. for an additional 4-18 hours to allow the colorimetric assay to develop, and the OD of each well was determined in a microplate reader using a 530 nm filter. The OD of wells containing cell titer reagent in culture medium with no cells was subtracted from the OD of all experimental readings.
(§5) The % decrease of the total cell titer signal was determined using the following formula. […] The p values were calculated versus diluent controls.

[2] = tested on: AU565 breast cancer cell line; experiment: Proliferation of AU565 cancer cells, Promega cell titer assay; conditions: AU565, 20 μM, 96 hours; negative number = increase
Procedure: as §1, §2, §3, §4, §5

[3] = tested on: U-118 metastatic astrocytoma cell line; experiment: Proliferation of U-118 cancer cells, Promega cell titer assay
Procedure: Assays were performed to determine the effect of Cpd. 5 on proliferation of an additional cancer cell line. This cell line was the U-118 metastatic astrocytoma cell line. It was obtained from ATCC.
To perform the assays, a 50 mM stock solution of Cpd. 5 was prepared in DMSO and frozen at −80° C. […] Controls containing equivalent amounts of DMSO to the 300 μM solution were mixed for comparative purposes. 100 μl of the resulting solutions were then added to 96 well culture plates in triplicate and placed in a 37° C. incubator with 5% CO2 to warm.
Cells were removed from passage flasks using trypsin and ethylenediaminetetracetic acid (EDTA) and counted using trypan blue to establish cell counts/ml and viability. For all experiments, viability of cells was greater than 95%. Solutions of 4,000 cells/100 μl were prepared in the medium from above, and 100 μl of the solutions were added to each well of the plates. The plates were placed back in the incubator and incubated with the compounds for 96 hours.
Following incubation, cell proliferation was assayed by adding 20 μl Promega cell titer aqueous one reagent to each well. Promega cell titer reagent is a solution containing a tetrazolium dye that is reduced by living cells to a formazan dye, and this reduction is proportional to the number of living cells present in the well. The plates were incubated at 37° C. for an additional 4 hours to allow the colorimetric assay to develop, and the OD of each well was determined in a microplate reader using a 530 nm filter. The OD of wells containing cell titer reagent in culture medium with no cells was subtracted from the OD of all experimental readings.
The % decrease of the total cell titer signal was determined using the following formula. ((Diluent OD−Experimental OD)/Diluent OD))×100. Data are presented in Table 5 as mean % decrease of cell titer signal of three separate experiments, plus or minus standard deviation. In the mean % decrease column, a positive number means a decrease in cell titer signal, while a negative number means an increase in cell titer signal. The p values were calculated versus diluent controls.
The above experiment was repeated using the U-118 cells at 3000 cells/well.

For `O=c1cc(N2CCNCC2)oc2c(-c3ccccc3)cccc12` [LY303511, reference compound], the “MEAN % DECREASE of cell titer signal” value [1] was −4.74%, the “MEAN % DECREASE of cell titer signal” value [2] was −2.34% and the “MEAN % DECREASE of cell titer signal” value ([3]; U-118, 3000 cells/well, 40 μM final) was 0.41%. The “MEAN % DECREASE of cell titer signal” value ([3]; U-118, 4,000 cells/well, 20 μM final, 96 hours) was −25.93%.
